Our source for the Ki values is patent US7790732B2, “5-Chloro-4-alkyl-3,4-dihydro-quinazolin-2-ylamine derivatives” (Hoffman-La Roche Inc., priority 2005, dated 2010).

This assay has as its target T1, recombinant human 5-HT5A receptor (Homo sapiens, UniProt P47898).
T1 construct: expressed in transfected cells; host or cells: HEK-EBNA (Human Embryonic Kidney-EBNA) cells, transient cDNA expression, membranes
As to the kind of experiment: [3H]LSD radioligand binding assay, recombinant human 5-HT5A receptor in HEK-EBNA cell membranes. The following applies: [3H]LSD approximately 1 nM; membranes from HEK-EBNA cells; Ki from IC50 by the Cheng-Prussoff equation. Here is the method: A [^3H] LSD radioligand binding assay was used to determine the affinity of the compounds for the recombinant human 5-HT5A receptor in membranes from transiently (cDNA) expressed 5-HT5A receptors in Human Embryonic Kidney-EBNA (HEK-EBNA) cells. Assay buffer consisted of Tris (50 mM) buffer containing 1 mM EGTA, 10 mM MgCl2 (pH 7.4) and 10 μM pargyline. The binding assay was carried out in 96-well-plates in the presence of [^3H]LSD (approximately 1 nM), approximately 2 μg/well of membrane protein, and 0.5 mg of Ysi-poly-1-lysine SPA beads in a final volume of 200 μl of buffer. Non-specific binding was defined using methiothepin 2 μM. Compounds were tested at 10 concentrations. All assays were conducted in duplicate and repeated at least two times. Assay plates were incubated for 120 min at room temperature before centrifugation. Bound ligand was determined using a Packard Topcount scintillation counter. IC50 values were calculated using a non-linear curve fitting program, and Ki values were calculated using the Cheng-Prussoff equation.

T1 sequence (P47898 whole entry): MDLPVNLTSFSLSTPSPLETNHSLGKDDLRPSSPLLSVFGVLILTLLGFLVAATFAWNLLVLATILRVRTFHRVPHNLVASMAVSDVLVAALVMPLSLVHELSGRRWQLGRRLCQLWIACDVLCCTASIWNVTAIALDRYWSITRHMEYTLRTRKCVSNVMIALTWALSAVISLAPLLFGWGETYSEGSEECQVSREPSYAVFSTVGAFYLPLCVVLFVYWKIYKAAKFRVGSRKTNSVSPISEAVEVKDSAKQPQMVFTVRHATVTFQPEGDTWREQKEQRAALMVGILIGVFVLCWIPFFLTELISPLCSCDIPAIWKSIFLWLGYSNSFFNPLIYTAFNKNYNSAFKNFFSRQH

Take `CC1NC(N)=Nc2cccc(Cl)c21` (stereo not shown) [Example 1, 5-Chloro-4-methyl-3,4-dihydro-quinazolin-2-ylamine]: the Ki was 5.13 nM. The figure for `CNC1=Nc2cccc(Cl)c2C(C)N1` (stereo not shown) [Example 2, (5-Chloro-4-methyl-3,4-dihydro-quinazolin-2-yl)-methyl-amine] is 10.8 nM; for `CC1NC(NC2CCC2)=Nc2cccc(Cl)c21` (stereo not shown) [Example 3, (5-Chloro-4-methyl-3,4-dihydro-quinazolin-2-yl)-cyclobutyl-amine] it is 15.5 nM. Under `CC1NC(NCC(F)F)=Nc2cccc(Cl)c21` (stereo not shown) [Example 5, (5-Chloro-4-methyl-3,4-dihydro-quinazolin-2-yl)-(2,2-difluoro-ethyl)-amine] stands 10.1 nM; under `CC1NC(N)=Nc2ccc(Cl)c(Cl)c21` (stereo not shown) [Example 8, 5,6-Dichloro-4-methyl-3,4-dihydro-quinazolin-2-ylamine], 2 nM. Under `CNC1=Nc2ccc(Cl)c(Cl)c2C(C)N1` (stereo not shown) [Example 9, (5,6-Dichloro-4-methyl-3,4-dihydro-quinazolin-2-yl)-methyl-amine] stands 6.34 nM.

Turning to `CC1NC(NCC(F)F)=Nc2ccc(Cl)c(Cl)c21` (stereo not shown) [Example 10, (5,6-Dichloro-4-methyl-3,4-dihydro-quinazolin-2-yl)-(2,2-difluoro-ethyl)-amine], the Ki is 5.67 nM. The figure for `CC1NC(NC2CCC2)=Nc2ccc(Cl)c(Cl)c21` (stereo not shown) [Example 15, Cyclobutyl-(5,6-dichloro-4-methyl-3,4-dihydro-quinazolin-2-yl)-amine] is 6.9 nM. Under `CC(=O)NCCNC1=Nc2ccc(Cl)c(Cl)c2C(C)N1` (stereo not shown) [Example 16, N-[2-(5,6-Dichloro-4-methyl-3,4-dihydro-quinazolin-2-ylamino)-ethyl]-acetamide] stands 8.87 nM. The figure for `CCCCCNC1=Nc2ccc(Cl)c(Cl)c2C(C)N1` (stereo not shown) [Example 18, (5,6-Dichloro-4-methyl-3,4-dihydro-quinazolin-2-yl)-pentyl-amine] is 13.9 nM; for `COCCCNC1=Nc2ccc(Cl)c(Cl)c2C(C)N1` (stereo not shown) [Example 19, (5,6-Dichloro-4-methyl-3,4-dihydro-quinazolin-2-yl)-(3-methoxy-propyl)-amine] it is 6.9 nM; for `CC1NC(NCC2COCCO2)=Nc2ccc(Cl)c(Cl)c21` (stereo not shown) [Example 21, (5,6-Dichloro-4-methyl-3,4-dihydro-quinazolin-2-yl)-[1,4]dioxan-2-ylmethyl-amine] it is 17.8 nM. Regarding `CC1NC(N)=Nc2c(Cl)ccc(Cl)c21` (stereo not shown) [Example 23, 5,8-Dichloro-4-methyl-3,4-dihydro-quinazolin-2-ylamine], the Ki is 5.85 nM.
